Assay results published in ChEMBL document CHEMBL1140538, “Pyrazolo[1,5-a]pyrimidines as orally available inhibitors of cyclin-dependent kinase 2” (Bioorg Med Chem Lett, 2007).
Where “and” joins values, the source holds several entries; their conditions need not be identical. Identical values can stand only once.

Tests used:
[1] = Inhibition of human CDK2/cyclin A
[2] = Effect on cell proliferation assessed as radiolabeled thymidine incorporation in cell-based assay; type: functional; details: Homo sapiens
[3] = target: Glycogen synthase kinase-3 beta (Homo sapiens, UniProt P49841); test: Inhibition of human GSK3-beta
[4] = Inhibition of human MAPK
[5] = AUC in dog at 5 mg/kg; type: ADME, organism-based, Canis lupus familiaris; parameters: dose 5 mg/kg; details: plasma
Canis familiaris = species on record: Canis familiaris; test: Protein binding in dog; type: ADME, organism-based, Canis lupus familiaris; details: in vivo
A2780 = test: Antitumor activity against A2780 cells xenografted in mouse at 40 mg/kg, po QD for 10 days; type: functional; details: A2780, 240 h
Mus musculus = species on record: Mus musculus; test: Protein binding in mouse; type: ADME, organism-based; details: in vivo
[6] = AUC in monkey at 10 mg/kg; type: ADME, organism-based, Macaca mulatta; parameters: dose 10 mg/kg; details: rhesus monkey, plasma
[7] = AUC in mouse at 40 mg/kg; type: ADME, organism-based; parameters: dose 40 mg/kg; details: plasma
[8] = Cmax in dog at 5 mg/kg, po; type: ADME, organism-based, Canis lupus familiaris; parameters: dose 5 mg/kg, route oral; details: in vivo
[9] = Tmax in rat at 10 mg/kg; type: ADME, organism-based; parameters: dose 10 mg/kg; details: in vivo
Rattus norvegicus = species on record: Rattus norvegicus; test: Protein binding in rat; type: ADME, organism-based; details: in vivo
[10] = Cmax in mouse at 40 mg/kg; type: ADME, organism-based; parameters: dose 40 mg/kg; details: in vivo
[11] = Tmax in mouse at 40 mg/kg; type: ADME, organism-based; parameters: dose 40 mg/kg; details: in vivo
Homo sapiens = species on record: Homo sapiens; test: Protein binding in human; type: ADME, organism-based; details: in vivo
[12] = Cmax in monkey at 10 mg/kg; type: ADME, organism-based, Macaca mulatta; parameters: dose 10 mg/kg; details: rhesus monkey, in vivo
Rhesus monkey = test: Protein binding in monkey; type: ADME, organism-based, Macaca mulatta; details: in vivo
[13] = AUC in rat at 10 mg/kg; type: ADME, organism-based; parameters: dose 10 mg/kg; details: plasma
[14] = Tmax in monkey at 10 mg/kg; type: ADME, organism-based, Macaca mulatta; parameters: dose 10 mg/kg; details: rhesus monkey, in vivo
[15] = Cmax in rat at 10 mg/kg; type: ADME, organism-based; parameters: dose 10 mg/kg; details: in vivo

Glycogen synthase kinase-3 beta, sequence (P49841 whole entry): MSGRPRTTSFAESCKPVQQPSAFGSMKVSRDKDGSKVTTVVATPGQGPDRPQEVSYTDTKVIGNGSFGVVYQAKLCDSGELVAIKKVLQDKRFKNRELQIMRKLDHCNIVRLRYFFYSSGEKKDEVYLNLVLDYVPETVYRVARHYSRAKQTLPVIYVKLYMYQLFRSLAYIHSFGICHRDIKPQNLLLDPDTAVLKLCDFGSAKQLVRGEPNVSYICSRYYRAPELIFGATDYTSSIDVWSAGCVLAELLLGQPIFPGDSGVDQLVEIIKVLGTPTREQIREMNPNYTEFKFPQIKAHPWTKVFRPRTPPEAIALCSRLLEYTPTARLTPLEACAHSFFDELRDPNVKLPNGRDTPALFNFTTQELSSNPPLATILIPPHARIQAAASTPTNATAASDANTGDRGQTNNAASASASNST

Structure (SMILES) | IC50 [1] | IC50 [2] | IC50 [3] | other results
COc1cnn2c(NCc3cccnc3)cc(-c3ccccc3)nc12 | 1100 nM | – | – | –
Nc1cc(-c2ccccc2)nc2c(Br)cnn12 | 250 nM | – | – | –
Clc1ccccc1-c1cc(NCOc2cccnc2)n2ncc(Br)c2n1 | 11 nM | 170 nM | 35 nM | –
Clc1ccccc1-c1cc(NCc2cccnc2)n2ncc(Br)c2n1 | 4 nM and 3 nM | 500 nM | 54 nM | –
CCc1cc(NCc2cccnc2)n2ncc(Br)c2n1 | 18 nM | 520 nM | 920 nM | –
FC(F)(F)Cc1cnn2c(NCc3cccnc3)cc(-c3ccccc3)nc12 | 710 nM | – | – | –
Brc1cnn2c(NCc3cccnc3)cc(C3CC3)nc12 | 45 nM | 1500 nM | 1130 nM | –
CCCCc1cnn2c(NCc3cccnc3)cc(-c3ccccc3)nc12 | 1200 nM | – | – | –
CN(C)Cc1cnn2c(NCc3cccnc3)cc(-c3ccccc3)nc12 | 34000 nM | – | – | –
CCCNc1cc(-c2ccccc2Cl)nc2c(Br)cnn12 | 163 nM | – | – | –
C#CCc1cnn2c(NCc3cccnc3)cc(-c3ccccc3)nc12 | 840 nM | – | – | –
c1ccc(Cc2cnn3c(NCc4cccnc4)cc(-c4ccccc4)nc23)cc1 | 16000 nM | – | – | –
CCCc1cnn2c(NCc3cccnc3)cc(-c3ccccc3)nc12 | 890 nM | – | – | –
Clc1cccc(-c2cc(NCc3ccncc3)n3nccc3n2)c1Cl | 500 nM | – | – | –
C=Cc1cnn2c(NCc3cccnc3)cc(-c3ccccc3)nc12 | 90 nM | – | – | –
N#CCc1cnn2c(NCc3cccnc3)cc(-c3ccccc3)nc12 | 49 nM | – | 1100 nM | IC50 [4]: 1330 nM
Brc1cnn2c(NCc3cccnc3)cc(-c3ccco3)nc12 | 8 nM | 15200 nM | 310 nM | –
c1ccc(-c2cc(NCc3cccnc3)n3nccc3n2)cc1 | 250 nM | – | – | –
Cc1cnn2c(NCc3cccnc3)cc(-c3ccccc3)nc12 | 72 nM | – | – | IC50 [4]: 1400 nM
C#Cc1cnn2c(NCc3cccnc3)cc(-c3ccccc3)nc12 | 48 nM | – | 9820 nM | IC50 [4]: 7480 nM
Brc1cnn2c(NCc3cccnc3)cc(C3CCCCC3)nc12 | 4 nM | 200 nM | 27 nM | –
Fc1ccccc1-c1cc(NCOc2cccnc2)n2ncc(Br)c2n1 | 13 nM | 210 nM | 130 nM | AUC [5]: 2.44 µM·h; Activity (Canis familiaris): 93%; inhibition in vivo at 40 mg/kg (A2780): 96%; Activity (Mus musculus): 90%; AUC [6]: 43 µM·h; AUC [7]: 17.9 µM·h; Cmax [8]: 2580 nM; Tmax [9]: 2 h; Activity (Rattus norvegicus): 85%; Cmax [10]: 6810 nM; Tmax [11]: 2 h; Activity (Homo sapiens): 95%; Cmax [12]: 3200 nM; Activity (Rhesus monkey): 89%; AUC [13]: 16.4 µM·h; Tmax [14]: 3.3 h; Cmax [15]: 2290 nM
CS(=O)(=O)c1ccc(Nc2cc(-c3ccccc3Cl)nc3c(Br)cnn23)cc1 | 350 nM | 900 nM | 450 nM | –
CNc1cc(-c2ccccc2Cl)nc2c(Br)cnn12 | 20 nM | 1800 nM | 247 nM | –
CC(Nc1cc(-c2ccccc2)nc2c(Br)cnn12)c1cccnc1 (stereo unspecified) | 3000 nM | – | – | –
Fc1ccccc1-c1cc(NCc2ccccc2)n2ncc(Br)c2n1 | 300 nM | – | 15200 nM | –
Brc1cnn2c(NCc3cccnc3)cc(C3CCNCC3)nc12 | 16 nM | 160 nM | 410 nM | –

Structure (SMILES) | IC50 [1] | IC50 [2] | IC50 [3] | other results
CNc1cc(NCc2cccnc2)n2ncc(Br)c2n1 | 43 nM | 1200 nM | 4600 nM | –
CC(O)c1cc(NCc2cccnc2)n2ncc(Br)c2n1 (stereo unspecified) | 38 nM | 1400 nM | 500 nM | –
CC(C)c1cnn2c(NCc3cccnc3)cc(-c3ccccc3)nc12 | 370 nM | – | – | –
OC(c1cnn2c(NCc3cccnc3)cc(-c3ccccc3)nc12)C(F)(F)F (stereo unspecified) | 3400 nM | – | – | –
Brc1cnn2c(NCc3cccnc3)cc(-c3cccs3)nc12 | 13 nM | 750 nM | 480 nM | –
Cc1ccccc1-c1cc(NCc2ccc[n+]([O-])c2)n2ncc(Br)c2n1 | 49 nM | – | – | –
c1ccc(-c2cc(NCc3cccnc3)n3ncc(C4CC4)c3n2)cc1 | 71 nM | – | – | –
Brc1cnn2c(NCc3cccnc3)cc(-c3ccccc3)nc12 | 11 nM | – | 570 nM | IC50 [4]: 370 nM
OCCSc1cnn2c(NCc3cccnc3)cc(-c3ccccc3)nc12 | 30 nM | – | – | –
Brc1cnn2c(NCc3cccnc3)cc(N3CCNCC3)nc12 | 210 nM | – | – | –
Fc1ccccc1-c1cc(Nc2ccccc2)n2ncc(Br)c2n1 | 408 nM | – | 13300 nM | –
Clc1ccccc1-c1cc(NC2CC2)n2ncc(Br)c2n1 | 825 nM | – | – | –
COc1cc(NCc2cccnc2)n2ncc(Br)c2n1 | 35 nM | 2000 nM | 1410 nM | –
CSc1cnn2c(NCc3cccnc3)cc(-c3ccccc3)nc12 | 7 nM | – | 1800 nM | IC50 [4]: 900 nM
Cc1cc(NCc2cccnc2)n2ncc(Br)c2n1 | 60 nM | 1800 nM | 3530 nM | –
O=[N+]([O-])c1cnn2c(NCc3cccnc3)cc(-c3ccccc3)nc12 | > 50000 nM | – | – | –
CC(C)c1cc(NCc2cccnc2)n2ncc(Br)c2n1 | 17 nM | 950 nM | 420 nM | –
CCc1cnn2c(NCc3cccnc3)cc(-c3ccccc3)nc12 | 8 nM | – | 2800 nM | IC50 [4]: 2000 nM
Brc1cnn2c(NCc3cccnc3)cc(C3CCCNC3)nc12 (stereo unspecified) | 8 nM | 60 nM | 180 nM | –
CC(=O)c1cnn2c(NCc3cccnc3)cc(-c3ccccc3)nc12 | > 50000 nM | – | – | –
FC(F)(F)c1cnn2c(NCc3cccnc3)cc(-c3ccccc3)nc12 | 95 nM | – | – | –
CCOC(=O)c1cc(NCc2cccnc2)n2ncc(Br)c2n1 | 89 nM | 2900 nM | 790 nM | –
Brc1cnn2c(NCOc3cccnc3)cc(-c3ccccc3)nc12 | 34 nM | 140 nM | 600 nM | –
CC(=O)NCCSc1cnn2c(NCc3cccnc3)cc(-c3ccccc3)nc12 | 2 nM | – | 34 nM | IC50 [4]: 12000 nM
CSc1cc(NCc2cccnc2)n2ncc(Br)c2n1 | 38 nM | 990 nM | 1180 nM | –
OCc1cnn2c(NCc3cccnc3)cc(-c3ccccc3)nc12 | 2170 nM | – | – | –
c1ccc(-c2cc(NCc3cccnc3)n3ncc(-c4ccccc4)c3n2)cc1 | > 50000 nM | – | – | –
